Results from patent publication US11179409B2, “Cucurbitane tetracyclic triterpenoid compounds for application in treating pulmonary fibrosis” (CHENGDU BIOPURIFY LTD., priority 2015, dated 2021).

Experiments:
[1] = tested on: bleomycin-induced pulmonary fibrosis model mice; experiment: Bleomycin-induced mice pulmonary fibrosis model (tracheal bleomycin, stomach perfusion of drug); assay type: in vivo; conditions: for Body weights compared with model group / Lung coefficients (lung weight mg/body weight g) compared with model group: high-dose and low-dose mogroside IIIe groups, prednisone acetate 6.67 mg/kg/d, P<0.01; for Body weights compared with model group: after 14 and 28 days of administration, FIG. 1; for Lung coefficients (lung weight mg/body weight g) compared with model group: after administration for 14 days and 28 days, FIG. 2; for Lung tissue fibrosis degree (Masson staining) compared with model group: lung section on day 28, FIG. 3
Description: The above mogroside IIIe is selected to be subjected to in-vivo pharmacodynamical research. Injection of a bleomycin-induced mice pulmonary fibrosis model is a commonly used method in the world, and such model is similar to a human pulmonary interstitial fibrosis model.
100 male ICR mice with a body weight of 25-30 g are provided by Comparative Medicine Center of Yangzhou University.
20 mice are used as a blank control group (control group in FIG. 1), and the other 80 mice are used for modeling. All the above mice are anesthetized by virtue of intraperitoneal injection of 4% chloral hydrate, with injection volume of 10 ml/kg. After anesthesia, each mouse is fixed and the neck of the mouse is disinfected; the skin of its neck is cut longitudinally with scissors to expose the trachea; the syringe is inserted into the trachea. The mice in the blank control group are injected with normal saline, and the remaining mice are injected with bleomycin (5 mg/kg); then the mouse plate is quickly erected and rotated, and the wound of each mouse is sutured after observing the breathing condition of the mouse, and 1-2 drops of penicillin injection are dropped at the suture. The postoperative mouse is placed back in a dry and clean mouse cage for rest, and then is normally fed after it revives approximately 1-2 h later.
Starting from the day 7 after modeling, the other 80 mice are randomly divided into a model group, a positive drug (prednisone acetate) group, a high-dose mogroside IIIe (50 mg/kg, mogroside IIIe-H) group, a low-dose mogroside IIIe group (10 mg/kg, mogroside IIIe-L), 20 mice in each group.
The mice in the blank control group and the model group are subjected to stomach perfusion with normal saline every day, the mice in the positive drug group are subjected to stomach perfusion with 6.67 mg/kg/d prednisone acetate, the mice in the high-dose/low-dose mogroside IIIe groups are subjected to stomach perfusion with 50 mg/kg/d and 10 mg/kg/d respectively for continuous 28 days, and are killed on the day 14 and the day 28. The each mouse is recorded in body weight, the lung tissue is taken out via dissection, cleaned with ice normal saline, sucked dry with absorbent paper and weighed, and then a lung coefficient is calculated, i.e., lung coefficient=lung weight (mg)/body weight (g). The left lung is put into 4% neutral formaldehyde for fixation, gradually dehydrated with alcohol, transparentized with xylene, immersed in wax, embedded in paraffin, then routinely sectioned and subjected to Masson staining, so that the lung tissue morphology, lung injury condition and pulmonary fibrosis degree are observed. Other lung lobes are individually stored for determination of HYP content.
All data are expressed as mean±SD(x±s). SPSS 11.5 statistical software is used for processing. Statistical analysis is performed using one-way ANOVA. P<0.05 represents this group has statistical significance.
For mice lung tissue injury caused by bleomycin, the number of leukocytes is increased, especially neutrophil infiltration causes alveolar inflammation, and inflammatory cells release inflammatory mediators NO, TNF-α and various cytokines, thereby on one hand, aggravating lung tissue injury and on the other hand promoting excessive increase of collagen through various growth factors. This experiment is performed in accordance with requirement specification of a kit. The number of leukocytes in the bronchoalveolar lavage fluid of the mice in each group is detected by a colorimetric method on the day 14 (as shown in Table 1). Neutrophils and lymphocytes are obviously accumulated in the bronchoalveolar lavage fluid of the mice on the day 14 after treatment with bleomycin (BLM).
Hydrooxyproline (HPY) is an amino acid obtained through protein hydrolysis of connective tissues, accounts for about 14% of the weight of collagen and plays a crucial role in stability of collagen. […]

[2] = tested on: bleomycin-induced pulmonary fibrosis model mice; experiment: as above; assay type: in vivo; conditions: for Lung tissue fibrosis degree (Masson staining) compared with model group: mice killed on day 28; for Lung coefficients compared with model group: day 28 after modeling, FIG. 7; for No. of neutrophils in bronchoalveolar lavage fluid / Total No. of cells in bronchoalveolar lavage fluid: n = 5
[3] = tested on: LPS-induced RAW264.7 cells; experiment: NO level in LPS-induced RAW264.7 cells; assay type: cell-based, mice; conditions: within a range of 10-100 μM
[4] = tested on: TGF-β1-induced human alveoli type II epithelial cells (A549); experiment: α-SMA expression (Western blot) in TGF-β1-induced A549 epithelial-mesenchymal transition; assay type: cell-based; conditions: TGF-β1 5 ng/mL, culture 48 hours, concentration of 50 μM, FIG. 5
Description: Alveolar epithelial cells can obtain mesenchymal cell phenotypes through an epithelial cell-mesenchyme transformation (EMT) process to serve as an important source of myofibroblast and muscle fiber metrocyte. In this new mode, epithelial cell-mesenchyme transformation of pulmonary alveoli should be considered as one of key links of fibrosis. In mature cells, injury can induce transformation of epithelial cells into mesenchymal cell phenotype, thus facilitating the fibrosis of many organs. Fibroblasts and muscle fiber metrocytes differentiated from epithelial cells often change through form (for example, change from a cubical cell form to a strip form or a fusiform), obtaining of specific marker of the fibroblast or the muscle fiber metrocyte (for example, α-SMA) and loss of the epithelial character marker (for example, epithelial cell cadherin (E-cadherin and closely linked protein) are fussed together with these epithelial tissues. Through an in-vitro test, A549 cells are induced with TGF-β1 to generate epithelial cell-mesenchyme transformation (EMT), the α-SMA expression level of actin is analyzed adopting a Western blot method, and study meaning of mogroside IIIe on pathogensis of pulmonary fibrosis in a signal transduction pathway of an EMT process is discussed. […]

[5] = Example 2, mogroside IVe 50 mg/kg and 20 mg/kg, prednisone acetate 6.67 mg/kg/d, after administration for 14 days and 28 days, P<0.01, FIG. 6
[6] = Example 2, mogroside IVe 50 mg/kg and 20 mg/kg, prednisone acetate 6.67 mg/kg/d, P<0.01
[7] = Example 3, mogrol 50 mg/kg and 20 mg/kg, prednisone acetate 7.0 mg/kg/d, FIG. 9
[8] = Example 2, Table 2, 50 mg/kg high-dose group, day 14, *P<0.05 vs model group
[9] = Example 1, Table 1, 50 mg/kg high-dose group, day 14, mean±SD, *P<0.05 vs model group
[10] = Example 1, on the 28 d after administration, P<0.05 or P<0.01
[11] = Example 3, Table 3, 50 mg/kg high-dose group, day 14, vs model group

| SMILES | Body weights compared with model group ([1]; Example 1) | Lung coefficients (lung weight mg/body weight g) compared with model group ([1]; Example 1) | Lung tissue fibrosis degree (Masson staining) compared with model group ([1]; Example 1) | Lung tissue fibrosis degree (Masson staining) compared with model group ([2]; Example 2, FIG. 8) | Body weights compared with model group [2, 5] | Lung coefficients compared with model group [2, 6] | Body weights compared with model group [2, 7] | also measured |
| --- | --- | --- | --- | --- | --- | --- | --- | --- |
| CC(=O)OCC(=O)[C@@]1(O)CC[C@H]2[C@@H]3CCC4=CC(=O)C=C[C@]4(C)[C@H]3C(=O)C[C@@]21C [prednisone acetate, reference compound] | obviously increased | obviously decreased | the degree of the lesion is relieved than that in the model group | relieved | obviously increased | obviously reduced | obviously increased |  |
| C[C@H](CC[C@@H](O[C@@H]1O[C@H](CO)[C@@H](O)[C@H](O)[C@H]1O[C@@H]1O[C@H](CO)[C@@H](O)[C@H](O)[C@H]1O)C(C)(C)O)[C@H]1CC[C@@]2(C)[C@H]3CC=C4[C@@H](CC[C@H](O[C@@H]5O[C@H](CO[C@@H]6O[C@H](CO)[C@@H](O)[C@H](O)[C@H]6O)[C@@H](O)[C@H](O)[C@H]5O)C4(C)C)[C@]3(C)[C@H](O)C[C@]12C [mogroside IVe] |  |  |  | fibroblast hyperplasia degree is lower than that in the model group | obviously increased | obviously reduced |  | No. of neutrophils in bronchoalveolar lavage fluid [2, 8]: 3.97 ± 3.89* ×10^4; Total No. of cells in bronchoalveolar lavage fluid [2, 8]: 30.84 ± 16.49* ×10^4 |
| C[C@H](CC[C@@H](O[C@@H]1O[C@H](CO)[C@@H](O)[C@H](O)[C@H]1O[C@@H]1O[C@H](CO)[C@@H](O)[C@H](O)[C@H]1O)C(C)(C)O)[C@H]1CC[C@@]2(C)[C@@H]3CC=C4[C@@H](CC[C@H](O[C@@H]5O[C@H](CO)[C@@H](O)[C@H](O)[C@H]5O)C4(C)C)[C@]3(C)[C@H](O)C[C@]12C [mogroside IIIe] | obviously increased | obviously decreased | fibroblast hyperplasia degree is lower than that in the model group |  |  |  |  | Level of NO [3]: dose dependence to inhibit the level of NO; α-SMA expression caused by TGF-β1 [4]: significantly inhibit; Total number of cells in bronchoalveolar lavage fluid [1, 9]: 32.81 ± 18.53*; Content of TNF-α in the lung tissue compared with model group [1, 10]: significantly lower than those in the model group; Number of neutrophils in bronchoalveolar lavage fluid [2, 9]: 4.28 ± 4.52*; Content of HYP in lung tissue compared with model group ([2]; Example 1, 50 mg/kg, day 28, digestion method, P<0.05, FIG. 4): obviously reduce the content of HYP; Content of TGF-β1 compared with model group [2, 10]: significantly lower than those in the model group |
| C[C@H](CC[C@@H](O)C(C)(C)O)[C@H]1CC[C@@]2(C)[C@@H]3CC=C4[C@@H](CC[C@H](O)C4(C)C)[C@]3(C)[C@H](O)C[C@]12C [mogrol] |  |  |  |  |  |  | obviously increased | No. of neutrophils in bronchoalveolar lavage fluid [2, 11]: 4.16 ± 4.26 ×10^4; Total No. of cells in bronchoalveolar lavage fluid [2, 11]: 34.72 ± 17.83 ×10^4; Lung tissue fibrosis degree (Masson staining) compared with model group ([2]; Example 3, high-dose/low-dose mogrol (50, 20 mg/kg), FIG. 10): fibroblast hyperplasia degree is lower than that in the model group; Lung index compared with model group ([2]; Example 3, high-dose/low-dose mogrol groups): obviously reduce lung index |
